Assay results taken from article PMC6145935, “Asymmetric assembly of high-value α-functionalized organic acids using a biocatalytic chiral-group-resetting process” (Nature Communications, 2018).

Molecular target: T1, CgTD (Corynebacterium glutamicum, UniProt Q04513)
T1 construct: gene ilvA; recombinant, expressed in E. coli BL21(DE3) from pETDuet-1 (pETduet-CgTD)
T1 sequence (Q04513 1-436): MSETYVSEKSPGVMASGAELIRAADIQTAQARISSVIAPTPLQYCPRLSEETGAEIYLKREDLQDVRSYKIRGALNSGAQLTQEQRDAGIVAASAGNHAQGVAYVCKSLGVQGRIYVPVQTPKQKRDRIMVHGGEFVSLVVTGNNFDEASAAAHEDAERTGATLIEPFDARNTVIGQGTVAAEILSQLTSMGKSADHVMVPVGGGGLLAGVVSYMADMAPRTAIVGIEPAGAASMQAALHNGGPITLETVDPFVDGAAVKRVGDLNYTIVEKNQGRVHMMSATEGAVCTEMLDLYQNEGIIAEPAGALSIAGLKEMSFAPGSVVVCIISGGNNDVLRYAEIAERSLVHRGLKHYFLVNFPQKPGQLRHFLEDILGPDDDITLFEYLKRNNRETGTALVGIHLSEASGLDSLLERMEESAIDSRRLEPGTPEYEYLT
Assay: TD activity screen of enzyme expressed in E. coli
Details: PLP enzyme; deamination to alpha-keto acid 4a

Row | Structure (SMILES) | TD activity screen of enzyme expressed in E. coli
1 | N[C@H](C(=O)O)[C@@H](O)c1ccccc1 [erythro-3a, erythro-ʟ-phenylserine] | only TD from Corynebacterium glutamicum (CgTD) showed activities toward both configurations
2 | N[C@H](C(=O)O)C(O)c1ccccc1 (stereo partly drawn) [threo-3a, threo-ʟ-phenylserine] | the TD activities toward both threo- and erythro-ʟ-phenylserine (threo/erythro-3a) were tested
